Source: ChEMBL document CHEMBL1131435, “Biphenylsulfonamide endothelin antagonists: structure-activity relationships of a series of mono- and disubstituted analogues and pharmacology of the orally active endothelin antagonist 2'-amino-N- (3,4-dimethyl-5-isoxazolyl)-4'-(2-methylpropyl)[1, 1'-biphenyl]-2-sulfonamide (BMS-187308)” (J Med Chem, 1998)
pKi: −log10 of the molar value. Where a SMILES comes first, the peptide text is derived from it.

Assays:
[1] = biological target: T1, Endothelin-1 receptor (Rattus norvegicus, UniProt P26684); experiment: Ability to inhibit binding of [125I]ET1 to membranes prepared from A10 rat thoracic aorta smooth muscle Endothelin A receptor; assay type: tissue-based
T1 sequence (P26684 whole entry): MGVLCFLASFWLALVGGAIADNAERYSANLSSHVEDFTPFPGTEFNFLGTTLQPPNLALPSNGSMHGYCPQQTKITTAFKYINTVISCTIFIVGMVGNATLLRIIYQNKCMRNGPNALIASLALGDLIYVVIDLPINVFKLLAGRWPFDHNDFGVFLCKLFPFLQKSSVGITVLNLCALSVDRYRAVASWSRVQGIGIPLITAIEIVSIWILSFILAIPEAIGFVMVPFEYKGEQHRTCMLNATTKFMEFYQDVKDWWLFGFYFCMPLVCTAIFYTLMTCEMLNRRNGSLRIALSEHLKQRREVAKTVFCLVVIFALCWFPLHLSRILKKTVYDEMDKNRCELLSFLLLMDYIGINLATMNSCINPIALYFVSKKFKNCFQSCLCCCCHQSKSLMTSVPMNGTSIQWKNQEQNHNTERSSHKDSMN

[2] = biological target: T2, Endothelin receptor type B (Rattus norvegicus, UniProt P21451); experiment: Ability to inhibit binding of [125I]-ET-1 to membranes prepared from […] rat cerebellum (Endothelin B receptor); assay type: tissue-based
T2 sequence (P21451 whole entry): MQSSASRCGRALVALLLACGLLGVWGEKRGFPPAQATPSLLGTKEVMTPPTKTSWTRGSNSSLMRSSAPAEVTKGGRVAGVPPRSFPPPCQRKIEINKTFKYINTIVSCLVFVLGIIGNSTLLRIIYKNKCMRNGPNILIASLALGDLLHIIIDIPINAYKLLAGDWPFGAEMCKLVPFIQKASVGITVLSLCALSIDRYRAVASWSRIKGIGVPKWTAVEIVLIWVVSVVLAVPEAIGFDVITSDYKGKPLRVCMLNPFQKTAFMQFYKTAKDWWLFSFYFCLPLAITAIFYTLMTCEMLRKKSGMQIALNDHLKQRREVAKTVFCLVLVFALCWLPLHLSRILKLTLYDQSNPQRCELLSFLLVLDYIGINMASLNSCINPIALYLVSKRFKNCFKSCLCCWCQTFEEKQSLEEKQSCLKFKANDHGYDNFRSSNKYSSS

| SMILES | pKi [1] | pKi [2] |
| --- | --- | --- |
| Cc1noc(NS(=O)(=O)c2ccccc2-c2ccc(CC(C)C)cc2)c1C | 7.74 | 5.77 |
| Cc1noc(NS(=O)(=O)c2ccccc2-c2ccc(CC(C)C)cc2N)c1C | 8.33 | 5.77 |
| CCCNc1cc(CC(C)C)ccc1-c1ccccc1S(=O)(=O)Nc1onc(C)c1C | 7.54 | 5.43 |
| Cc1noc(NS(=O)(=O)c2ccccc2-c2ccc(CC(C)C)cc2C(N)=O)c1C | 7.00 | 4.92 |
| Cc1noc(NS(=O)(=O)c2ccccc2Oc2ccccc2)c1C | 5.68 |  |
| CNc1cc(CC(C)C)ccc1-c1ccccc1S(=O)(=O)Nc1onc(C)c1C | 7.85 | 5.66 |
| Cc1noc(NS(=O)(=O)c2ccccc2-c2ccc(OCc3ccccc3)cc2)c1C | 6.72 | 5.08 |
| CC(C)Cc1ccc(-c2ccccc2S(=O)(=O)Nc2onc3c2CCCC3)cc1 | 4.62 | < 3.70 |
| COc1cc(CC(C)C)ccc1-c1ccccc1S(=O)(=O)Nc1onc(C)c1C | 7.13 | 4.27 |
| Cc1noc(NS(=O)(=O)c2ccc(NC(=O)CN)cc2-c2ccc(CC(C)C)cc2)c1C | 5.92 | 5.13 |
| Cc1noc(NS(=O)(=O)c2ccccc2-c2ccc(S(=O)(=O)C(C)C)cc2)c1C | 6.96 | 3.77 |
| Cc1cnoc1NS(=O)(=O)c1ccccc1-c1ccc(CC(C)C)cc1 | 6.01 | 4.00 |
| Cc1noc(NS(=O)(=O)c2ccccc2-c2ccc(CC(C)C)cc2C(=O)O)c1C |  | 4.59 |
| Cc1noc(NS(=O)(=O)c2cccc(OCC(=O)O)c2-c2ccc(CC(C)C)cc2)c1C | 7.38 | 5.40 |
| Cc1cccc(-c2ccc(CC(C)C)cc2)c1S(=O)(=O)Nc1onc(C)c1C | 5.89 | 4.72 |
| Cc1noc(NS(=O)(=O)c2ccccc2-c2ccc(N(C)C(C)C)cc2)c1C | 7.22 | 4.70 |
| Cc1noc(NS(=O)(=O)c2cc(O)ccc2-c2ccc(CC(C)C)cc2)c1C | 6.30 | 4.62 |
| CNC(=O)Nc1cc(CC(C)C)ccc1-c1ccccc1S(=O)(=O)Nc1onc(C)c1C | 7.37 | 5.27 |
| Cc1noc(NS(=O)(=O)c2cccc(OCCO)c2-c2ccc(CC(C)C)cc2)c1C | 8.57 | 5.64 |
| CCCc1ccc(-c2ccccc2S(=O)(=O)Nc2onc(C)c2C)cc1 | 7.55 | 4.82 |
| CC(=O)Nc1ccc(S(=O)(=O)Nc2onc(C)c2C)c(-c2ccc(CC(C)C)cc2)c1 |  | 5.01 |
| CC(C)Cc1ccc(-c2ccccc2S(=O)(=O)Nc2ccc(Cl)nn2)cc1 | 6.40 | 4.36 |
| CCNc1cc(CC(C)C)ccc1-c1ccccc1S(=O)(=O)Nc1onc(C)c1C | 8.20 | 5.85 |
| Cc1[n-][o+]c(NS(=O)(=O)c2ccccc2-c2ccc(CC(C)C)cc2)c1[N+](=O)[O-] |  | 4.52 |
| Cc1noc(NS(=O)(=O)c2ccccc2C(F)(F)F)c1C | 6.15 |  |

| SMILES | pKi [1] | pKi [2] |
| --- | --- | --- |
| Cc1noc(NS(=O)(=O)c2ccccc2-c2ccccc2CO)c1C | 7.40 | < 3.70 |
| Cc1noc(NS(=O)(=O)c2ccccc2-c2ccc(CC(C)C)cc2CO)c1C | 7.70 | 5.89 |
| Cc1noc(NS(=O)(=O)c2ccccc2-c2ccc(CC(C)C)cc2N(C)C)c1C | 6.48 | < 4.00 |
| Cc1noc(NS(=O)(=O)c2ccccc2-c2ccc(CC(C)C)cc2NC(C)C)c1C | 7.47 | 5.54 |
| Cc1noc(NS(=O)(=O)c2ccccc2-c2ccc(CC(C)C)cc2CNC=O)c1C | 8.70 | 5.92 |
| CCOC(=O)c1c(C)noc1NS(=O)(=O)c1ccccc1-c1ccc(CC(C)C)cc1 | 5.14 | 4.38 |
| Cc1[n-][o+]c(NS(=O)(=O)c2ccccc2[N+](=O)[O-])c1C | 5.46 |  |
| CCCCc1ccc(-c2ccccc2S(=O)(=O)Nc2onc(C)c2C)cc1 | 7.43 | 5.72 |
| Cc1noc(NS(=O)(=O)c2ccccc2-c2ccc(CC(C)C)cc2)c1Cc1ccccc1 | 5.19 | < 3.70 |
| Cc1noc(NS(=O)(=O)c2ccccc2-c2ccc(C(C)(C)C)cc2)c1C | 7.21 | 4.82 |
| Cc1noc(NS(=O)(=O)c2ccccc2-c2ccccc2)c1C |  | < 3.70 |
| Cc1noc(NS(=O)(=O)c2ccccc2C(C)C)c1C | 6.22 |  |
| Cc1noc(NS(=O)(=O)c2ccc(NC(=O)c3ccccc3)cc2-c2ccc(CC(C)C)cc2)c1C | 5.24 | 4.42 |
| Cc1noc(NS(=O)(=O)c2ccccc2-c2ccc(NC(C)C)cc2)c1C | 7.30 | 4.77 |
| Cc1noc(NS(=O)(=O)c2ccccc2-c2ccc(CC(C)C)cc2NCCO)c1C | 8.19 | 5.80 |
| Cc1noc(NS(=O)(=O)c2ccccc2-c2ccc(CCC(C)C)cc2)c1C | 7.10 | 4.52 |
| Cc1noc(NS(=O)(=O)c2ccccc2-c2ccc(OC(C)C)cc2)c1C | 7.77 | 5.82 |
| Cc1noc(NS(=O)(=O)c2ccccc2-c2ccc(OCC(C)C)cc2)c1C | 7.49 | 5.55 |
| Cc1noc(NS(=O)(=O)c2ccccc2-c2ccccc2N)c1C | 7.80 | < 3.70 |
| Cc1noc(NS(=O)(=O)c2ccccc2-c2ccc(CC(C)C)cc2NC=O)c1C | 7.77 | 5.16 |
| Cc1noc(NS(=O)(=O)c2ccccc2-c2ccc(SC(C)C)cc2)c1C | 7.41 | 5.24 |
| Cc1noc(NS(=O)(=O)c2ccccc2-c2ccc(C(C)C)cc2)c1C | 7.30 | 4.72 |
| Cc1noc(NS(=O)(=O)c2ccccc2-c2ccc(C(=O)O)cc2)c1C |  | < 3.70 |
| Cc1noc(NS(=O)(=O)c2ccccc2-c2cccc(N(C)C)c2)c1C | 6.95 | < 3.70 |
| Cc1noc(NS(=O)(=O)c2cc(OCc3ccccc3)ccc2-c2ccc(CC(C)C)cc2)c1C | < 4.70 | < 3.70 |

| SMILES | pKi [1] | pKi [2] |
| --- | --- | --- |
| Cc1noc(NS(=O)(=O)c2ccccc2-c2ccc(N(C)C)cc2)c1C | 7.27 | 5.22 |
| COc1cc(OC)nc(NS(=O)(=O)c2ccccc2-c2ccc(CC(C)C)cc2)n1 | 5.41 | 4.30 |
| Cc1noc(NS(=O)(=O)c2ccccc2-c2ccc(S(=O)(=O)N(C)C)cc2)c1C | 6.25 | < 3.70 |
| Cc1noc(NS(=O)(=O)c2ccccc2-c2ccc(CC(C)C)cc2F)c1C | 7.70 | 4.92 |
| Cc1noc(NS(=O)(=O)c2ccccc2-c2ccccc2[N+](=O)[O-])c1C | 6.85 | < 3.70 |
| Cc1noc(NS(=O)(=O)c2ccccc2-c2ccc(CC(C)C)cc2NCC(=O)O)c1C | 7.05 | 4.92 |
| Cc1ccc(-c2ccccc2S(=O)(=O)Nc2onc(C)c2C)cc1 | 7.26 | 4.64 |
| Cc1noc(NS(=O)(=O)c2ccccc2-c2cccc(CC(C)C)c2)c1C | 6.72 | 5.25 |
| Cc1cc(CC(C)C)ccc1-c1ccccc1S(=O)(=O)Nc1onc(C)c1C | 8.30 | 4.72 |
| Cc1noc(NS(=O)(=O)c2ccc(NCC(=O)O)cc2-c2ccc(CC(C)C)cc2)c1C | 6.26 | 5.72 |
| Cc1noc(NS(=O)(=O)c2ccccc2-c2ccc(CC(C)(C)C)cc2)c1C | 6.96 | 5.39 |
| COc1ccc(S(=O)(=O)Nc2onc(C)c2C)c(-c2ccc(CC(C)C)cc2)c1 | 6.43 | 5.21 |
| Cc1noc(NS(=O)(=O)c2ccc(N)cc2-c2ccc(CC(C)C)cc2)c1C | 7.85 | 5.68 |
| Cc1noc(NS(=O)(=O)c2ccccc2-c2ccccc2N(C)C)c1C | 6.99 | < 3.70 |
| Cc1noc(NS(=O)(=O)c2cccc(O)c2-c2ccc(CC(C)C)cc2)c1C | 8.30 | 6.03 |
| COc1cccc(S(=O)(=O)Nc2onc(C)c2C)c1-c1ccc(CC(C)C)cc1 | 7.80 | 5.70 |
| COc1ccc(-c2ccccc2S(=O)(=O)Nc2onc(C)c2C)cc1 | 7.48 | 3.60 |
| Cc1noc(NS(=O)(=O)c2ccccc2-c2ccc(CC(C)C)cc2O)c1C | 8.10 | 5.01 |
| Cc1noc(NS(=O)(=O)c2ccccc2-c2ccc(CC(C)C)cc2CN)c1C | 7.00 | 5.02 |
| Cc1noc(NS(=O)(=O)c2ccccc2-c2cccc(N)c2)c1C | 7.21 | < 3.70 |
| Cc1onc(NS(=O)(=O)c2ccccc2-c2ccc(CC(C)C)cc2)c1C | 7.89 | 5.70 |
| Cc1noc(NS(=O)(=O)c2ccccc2F)c1C | 5.33 |  |
| Cc1noc(NS(=O)(=O)c2cccc3c(N(C)C)cccc23)c1C [BMS-182874] | 7.26 | < 3.70 |
| CC(C)C[C@@H]1NC(=O)[C@@H](C(C)C)NC(=O)[C@@H]2CCCN2C(=O)[C@@H](CC(=O)O)NC(=O)[C@@H](Cc2c[nH]c3ccccc23)NC1=O [BQ-123] (HELM PEPTIDE1{L.[dW].[dD].P.[dV]}$PEPTIDE1,PEPTIDE1,1:R1-5:R2$$$V2.0) | 7.40 |  |
